Measurements reported in publication PMC11981937 (Nature, 2025).
“And” between values parts separate entries of the source, which are not always exact repeats. Equal values may be shown once. “Also recorded” adds a separate entry of the source. Read-outs that look alike come from different tables or passages of the source.

Assays:
PDCoV = PDCoV antiviral CPE reduction assay in Huh7 cells; type: cell-based, porcine deltacoronavirus
SARS-CoV-2 (B1) = type: cell-based
in vitro = settings: rhesus monkey
Huh7 cells = settings: human
SARS-CoV-2 B1 = type: in vivo, Syrian golden hamster; settings: for Histopathology score, average / Histopathology score, median / Infectious virus in the lung (TCID50/mg), average Log 10 / Infectious virus in the lung (TCID50/mg), median Log 10 / Viral load (viral RNA) in the lung, average Log 10 / Viral load (viral RNA) in the lung, median Log 10: n=5; for Histopathology score, individual animal / Infectious virus in the lung (TCID50/mg), Log 10, individual animal / Infectious virus in the lung, individual animal / Viral load (viral RNA) in the lung, Copy number, individual animal / Viral load (viral RNA) in the lung, Log 10, individual animal: listed as 87009676-AAA
[1] = pre-exposure, 8.33 mg/kg BID, 8.33 mg/kg
[2] = pre-exposure, 25 mg/kg BID, 25 mg/kg
[3] = pre-exposure, 75 mg/kg BID, 75 mg/kg

For C[C@H]1Cn2ncc(C(=O)Nc3cccc(C#N)c3)c2C(=O)N1c1ccc(C(F)(F)c2ccccc2)cc1 [JNJ-9676, (S)-N-(3-cyanophenyl)-5-(4-(difluoro(phenyl)methyl)phenyl)-6-methyl-4-oxo-4,5,6,7-tetrahydropyrazolo[1,5-a]pyrazine-3-carboxamide], the EC50 (PDCoV; Coronavirus HKU15, Huh-7, Huh7, PDCoV (deltaCoV), N=2, read-out: Median EC50) was greater than 30 µM, the EC90 (PDCoV; Coronavirus HKU15, Huh-7, Huh7, PDCoV (deltaCoV), N=2, read-out: Median EC90) was greater than 30 µM and the “antiviral activity (in words)” value (PDCoV; PDCoV) was “no activity”. The “biogenesis of infectious progeny” value (SARS-CoV-2 (B1)) was “inhibited completely”, the CC50 at 6 days (in vitro) was greater than 20 µM and the CC50 (Huh7 cells) was greater than 30 µM. The lowest effective dose (SARS-CoV-2 B1; Syrian golden hamster model) was 25 mg per kg BID, the “Histopathology score, average” value (SARS-CoV-2 B1; pre-exposure, 8.33 mg/kg BID) was 1.80 and the “Histopathology score, median” value (SARS-CoV-2 B1; pre-exposure, 8.33 mg/kg BID) was 2.00. For the same molecule, the “Infectious virus in the lung (TCID50/mg), average Log 10” value (shortened to “Infectious virus … average Log 10”) (SARS-CoV-2 B1; pre-exposure, 8.33 mg/kg BID) was 4.72 Log 10, the “Infectious virus in the lung (TCID50/mg), median Log 10” value (“Infectious virus … median Log 10” for short) (SARS-CoV-2 B1; pre-exposure, 8.33 mg/kg BID) was 4.67 Log 10 and the “Viral load (viral RNA) in the lung, average Log 10” value (shortened to “Viral load … average Log 10”) (SARS-CoV-2 B1; pre-exposure, 8.33 mg/kg BID) was 4.56 Log 10. For the same molecule, the “Viral load (viral RNA) in the lung, median Log 10” value (shortened to “Viral load … median Log 10”) (SARS-CoV-2 B1; pre-exposure, 8.33 mg/kg BID) was 4.62 Log 10, the “Histopathology score, individual animal” value (SARS-CoV-2 B1; [1]) was 2 and 1.5 and the “Infectious virus in the lung (TCID50/mg), Log 10, individual animal” value (from here on “Infectious virus … Log 10, individual animal”) (SARS-CoV-2 B1; [1]) was 5.82 Log 10 and 3.86 Log 10 and 4.99 Log 10 and 4.24 Log 10 and 4.67 Log 10. For the same molecule, the “Infectious virus in the lung, individual animal” value (SARS-CoV-2 B1; [1]) was 662125.31 TCID50/mg and 7237.18 TCID50/mg and 98821.18 TCID50/mg and 17573.17 TCID50/mg and 46447.60 TCID50/mg, the “Viral load (viral RNA) in the lung, Copy number, individual animal” value (shortened to “Viral load … Copy number, individual animal”) (SARS-CoV-2 B1; [1]) was 2.23E+04 and 1.34E+05 and 8.49E+02 and 4.14E+04 and 6.27E+05 and the “Viral load (viral RNA) in the lung, Log 10, individual animal” value (SARS-CoV-2 B1; [1]) was 4.35 Log 10 and 5.13 Log 10 and 2.93 Log 10 and 4.62 Log 10 and 5.80 Log 10. The “cumulative histopathological lung score (in words)” value (SARS-CoV-2 B1; pre-exposure, 25 mg per kg BID) was “reduced to the baseline; also recorded: significantly reduced”, the “reduction of viral load in the lung” value (SARS-CoV-2 B1; pre-exposure, 25 mg per kg BID, oral) was 3.5 log10[RNA copies per mg lung] and the “Histopathology score, average” value (SARS-CoV-2 B1; pre-exposure, 25 mg/kg BID) was 1.40. The “Histopathology score, median” value (SARS-CoV-2 B1; pre-exposure, 25 mg/kg BID) was 1.50, the “Infectious virus … average Log 10” value (SARS-CoV-2 B1; pre-exposure, 25 mg/kg BID) was 0.81 Log 10 and the “Infectious virus … median Log 10” value (SARS-CoV-2 B1; pre-exposure, 25 mg/kg BID) was 1.28 Log 10. For the same molecule, the “Viral load … average Log 10” value (SARS-CoV-2 B1; pre-exposure, 25 mg/kg BID) was 9.46 Log 10, the “Viral load … median Log 10” value (SARS-CoV-2 B1; pre-exposure, 25 mg/kg BID) was 9.30 Log 10 and the “Histopathology score, individual animal” value (SARS-CoV-2 B1; [2]) was 1.5 and 1. For the same molecule, the “Infectious virus … Log 10, individual animal” value (SARS-CoV-2 B1; [2]) was -2.00 Log 10 and 4.24 Log 10 and 2.52 Log 10 and 1.28 Log 10, the “Infectious virus in the lung, individual animal” value (SARS-CoV-2 B1; [2]) was 0.01 TCID50/mg and 17417.65 TCID50/mg and 328.03 TCID50/mg and 19.08 TCID50/mg and the “Viral load … Copy number, individual animal” value (SARS-CoV-2 B1; [2]) was 7.91E+09 and 1.46E+09 and 1.22E+09 and 1.99E+09 and 7.25E+09. The “Viral load (viral RNA) in the lung, Log 10, individual animal” value (SARS-CoV-2 B1; [2]) was 9.90 Log 10 and 9.16 Log 10 and 9.08 Log 10 and 9.30 Log 10 and 9.86 Log 10, the “cumulative histopathological lung score (in words)” value (SARS-CoV-2 B1; pre-exposure, 75 mg per kg BID) was “significantly reduced” and the “Histopathology score, average” value (SARS-CoV-2 B1; pre-exposure, 75 mg/kg BID) was 1.20. For the same molecule, the “Histopathology score, median” value (SARS-CoV-2 B1; pre-exposure, 75 mg/kg BID) was 1.00, the “Infectious virus … average Log 10” value (SARS-CoV-2 B1; pre-exposure, 75 mg/kg BID) was 1.08 Log 10 and the “Infectious virus … median Log 10” value (SARS-CoV-2 B1; pre-exposure, 75 mg/kg BID) was 2.38 Log 10. The “Viral load … average Log 10” value (SARS-CoV-2 B1; pre-exposure, 75 mg/kg BID) was 4.57 Log 10, the “Viral load … median Log 10” value (SARS-CoV-2 B1; pre-exposure, 75 mg/kg BID) was 3.13 Log 10 and the “Histopathology score, individual animal” value (SARS-CoV-2 B1; [3]) was 1 and 1.5. For the same molecule, the “Infectious virus … Log 10, individual animal” value (SARS-CoV-2 B1; [3]) was -2.00 Log 10 and 3.24 Log 10 and 3.78 Log 10 and 2.38 Log 10, the “Infectious virus in the lung, individual animal” value (SARS-CoV-2 B1; [3]) was 0.01 TCID50/mg and 1756.82 TCID50/mg and 5984.59 TCID50/mg and 240.02 TCID50/mg and the “Viral load … Copy number, individual animal” value (SARS-CoV-2 B1; [3]) was 4.93E+02 and 1.36E+03 and 1.66E+06 and 2.19E+08 and 2.75E+02.
